The test system of series [1] is Colletotrichum lindemuthianum. In words: Example E: Colletotrichum lindemuthianum in vitro cell test. It counts as cell-based. The following applies: 144 h, 20 ppm of active ingredient, liquid culture, 6 days incubation, read-out: efficacy (inhibition of fungal growth). The protocol:
Example E: Colletotrichum lindemuthianum In Vitro Cell Test
• Solvent: DMSO Culture medium: 14.6 g anhydrous D-glucose (VWR), 7.1 g Mycological Peptone (Oxoid), 1.4 g granulated Yeast Extract (Merck), QSP 1 liter • Inoculum: spores suspension
Active ingredients were solubilized in DMSO and the solution used to prepare the required range of concentrations. The final concentration of DMSO used in the assay was 1%.
A spore suspension of C. lindemuthianum was prepared and diluted to the desired spore density.
The active ingredients were evaluated for their ability to inhibit spores germination and mycelium growth in liquid culture assay. The compounds were added in the desired concentration to the culture medium with spores. After 6 days incubation, fungi-toxicity of compounds was determined by spectrometric measurement of mycelium growth. Inhibition of fungal growth was determined by comparing the absorbance values in wells containing the active ingredient with the absorbance in control wells without active ingredient.

The test system of a further series is Phakosporra pachirrhizi. In words: Example D: fungicidal activity against Phakosporra pachirrhizi (spore germination, 96-well imaging). It counts as cell-based. The following applies: 30 ppm of active ingredient; wild-type spores, 4 hours at 21° C.; read-out: efficacy (inhibition of the fungal germination). The protocol: Example D: Fungicidal Activity Against Phakosporra pachirrhizi
Cryo-conserved wild-type spores of the biotroph Phakosporra pachirrhizi are humidified in dedicated chamber overnight at 18° C. in the dark. The next day, a solution of spores at 7×10^3 sp/ml is prepared in a water based growth medium (DH2O+0.2 mM MOPS at pH 7+0.01% Tween 20) and spores are distributed in a 96-MTPS (final volume of 200 μL per well) thanks to a dispenser robot. Each molecule is tested at 10 doses (from 30 to 0.002 ppm final concentration) and accordingly 1.2 μL of each dilution is transferred in dedicated well to end-up with a final concentration of 0.6% DMSO. Wild-type spores and molecules are incubated for 4 hours at 21° C., and 6 images par well are then acquired with Transmitted Light images (Image Xpress Micro microscope, Molecular Devices, Objective 10λ, 6 images per well). Detection and quantification of the number of germinated spores per image is performed with a dedicated in-house developed algorithm (MetaXpress software, Molecular Devices).

Series [2] in a line: LogP by HPLC on reversed phase columns (EEC directive 79/831 Annex V.A8). In kind it is physicochemical. The following applies: reversed phase HPLC column; method [a]: LC-UV, acidic range, 0.1% formic acid in water and acetonitrile as eluent. The protocol: [table] If more than one Log P value is available within the same method, all the values are given and separated by “+”. […] Lambda-max-values were determined using UV-spectra from 200 nm to 400 nm and the peak values of the chromatographic signals.

The term inhibition denotes the percentage by which the read-out fell short of the control. Broadly, the chromatographic logP is lipophilicity estimated from chromatographic retention. Low readings indicate a more hydrophilic compound, high ones a more lipophilic compound.

The structures appear in SMILES notation.

For `FC(F)(F)c1nc(-c2ccc3[nH]ncc3c2)no1` [Compound I-005, 5-[5-(Trifluoromethyl)-1,2,4-oxadiazol-3-yl]-1H-indazole], the inhibition at 20 ppm in series [1] was 90 to 100%. Further, the inhibition at 30 ppm with Phakosporra pachirrhizi was 90 to 100%. Moreover, the chromatographic logP in series [2] came to 2.68.
In the case of `COCCn1ncc2cc(-c3noc(C(F)(F)F)n3)ccc21` [Compound I-013, 1-(2-Methoxyethyl)-5-[5-(trifluoromethyl)-1,2,4-oxadiazol-3-yl]-1H-indazole], the inhibition at 20 ppm in series [1] fell in the range of 80 to 89%. Moreover, the inhibition at 30 ppm in the series on Phakosporra pachirrhizi lay within 80 to 89%. The compound also displayed a chromatographic logP in series [2] of 3.31.
For the compound `COCCn1cc2cc(-c3noc(C(F)(F)F)n3)ccc2n1` [Compound I-014, 2-(2-Methoxyethyl)-5-[5-(trifluoromethyl)-1,2,4-oxadiazol-3-yl]-2H-indazole], the inhibition at 20 ppm in series [1] was in the range of 80 to 89%. Further, the inhibition at 30 ppm in the series with Phakosporra pachirrhizi lay in the range of 70 to 79%. The same compound returned a chromatographic logP in series [2] of 2.96.
With `CON(C(C)=O)C1CCCc2cc(-c3noc(C(F)(F)F)n3)ccc21` (stereo not drawn) [Compound I-020, N-Methoxy-N-{6-[5-(trifluoromethyl)-1,2,4-oxadiazol-3-yl]-1,2,3,4-tetrahydronaphthalen-1-yl}acetamide], in series [1], the inhibition at 20 ppm is 90 to 100%. Further, the inhibition at 30 ppm with Phakosporra pachirrhizi fell in the range of 70 to 79%. Further, the chromatographic logP in series [2] was found to be 3.79.

(Values after patent publication US20210009541A1, “FUNGICIDAL OXADIAZOLES” (Bayer Aktiengesellschaft, priority 2018, published 2021).)
